Measurements: paper PMC5218480 (PLoS ONE, 2017)

Test system: MV-4-11 cells
Assay: Gene expression microarray analysis (Affymetrix PrimeView) and GSEA
Type: cell-based, human
Design: RFU PODN (11730768_x_at) / Fold change /veh PODN (11730768_x_at) / RFU LINC00158 (11744669_a_at) / Fold change /veh LINC00158 (11744669_a_at) / RFU DUSP10 (11751237_a_at) / Fold change /veh DUSP10 (11751237_a_at) / RFU ID3 (11757404_x_at) / Fold change /veh ID3 (11757404_x_at) / RFU PLEKHG5 (11737974_s_at) / Fold change /veh PLEKHG5 (11737974_s_at) / RFU LRRC4B (11730491_at) / Fold change /veh LRRC4B (11730491_at) / RFU GIMAP4 (11747438_a_at) / Fold change /veh GIMAP4 (11747438_a_at) / RFU KRT8 (11758183_x_at) / Fold change /veh KRT8 (11758183_x_at) / RFU CNN1 (11734310_a_at) / Fold change /veh CNN1 (11734310_a_at) / RFU VPS37D (11726825_at) / Fold change /veh VPS37D (11726825_at) / RFU C10orf10 (11716522_x_at) / Fold change /veh C10orf10 (11716522_x_at) / RFU KIR2DL2 /// KIR2DL4 /// KIR2DL5A /// KIR2DL5B /// KIR2DS1 /// KIR2DS2 /// KIR2DS3 /// KIR2DS4 /// KIR3DL3 /// KIR3DL3 /// KIR3DS1 (11738374_at) / Fold change /veh KIR2DL2 /// KIR2DL4 /// KIR2DL5A /// KIR2DL5B /// KIR2DS1 /// KIR2DS2 /// KIR2DS3 /// KIR2DS4 /// KIR3DL3 /// KIR3DL3 /// KIR3DS1 (11738374_at) / RFU C1QL1 (11718748_at) / Fold change /veh C1QL1 (11718748_at) / RFU TMPRSS4 (11747572_a_at) / Fold change /veh TMPRSS4 (11747572_a_at) / RFU HAMP (11756126_x_at) / Fold change /veh HAMP (11756126_x_at) / RFU RNFT2 (11725882_a_at) / Fold change /veh RNFT2 (11725882_a_at) / RFU NR4A2 (11747474_a_at) / Fold change /veh NR4A2 (11747474_a_at) / RFU ABCC12 (11746883_a_at) / Fold change /veh ABCC12 (11746883_a_at) / RFU TMEM136 (11760407_x_at) / Fold change /veh TMEM136 (11760407_x_at) / RFU CLDN22 /// WWC2 (11732394_at) / Fold change /veh CLDN22 /// WWC2 (11732394_at) / RFU HLA-DPB1 (11760878_x_at) / Fold change /veh HLA-DPB1 (11760878_x_at) / RFU SPINT1 (11716480_a_at) / Fold change /veh SPINT1 (11716480_a_at) / RFU GAP43 (11754022_s_at) / Fold change /veh GAP43 (11754022_s_at) / RFU A4GNT (11735810_at) / Fold change /veh A4GNT (11735810_at) / RFU PRB3 (11715151_x_at) / Fold change /veh PRB3 (11715151_x_at) / RFU TUBB4B (11761932_at) / Fold change /veh TUBB4B (11761932_at) / RFU CAPN14 (11732068_a_at) / Fold change /veh CAPN14 (11732068_a_at) / RFU TMCC2 (11721928_a_at) / Fold change /veh TMCC2 (11721928_a_at) / RFU IRGQ (11745062_a_at) / Fold change /veh IRGQ (11745062_a_at) / RFU FAM174B (11720279_a_at) / Fold change /veh FAM174B (11720279_a_at) / RFU TMPRSS4 (11748680_a_at) / Fold change /veh TMPRSS4 (11748680_a_at) / RFU FAM212B (11763350_a_at) / Fold change /veh FAM212B (11763350_a_at) / RFU PLEKHG5 (11743358_a_at) / Fold change /veh PLEKHG5 (11743358_a_at) / RFU ZSCAN30 (11745921_a_at) / Fold change /veh ZSCAN30 (11745921_a_at) / RFU CMKLR1 (11741424_a_at) / Fold change /veh CMKLR1 (11741424_a_at) / RFU LOC101060620 /// MAPK8IP1 (11723275_at) / Fold change /veh LOC101060620 /// MAPK8IP1 (11723275_at) / RFU SPTSSB (11747773_x_at) / Fold change /veh SPTSSB (11747773_x_at) / RFU PRSS12 (11739890_at) / Fold change /veh PRSS12 (11739890_at) / RFU BIN1 (11741810_x_at) / Fold change /veh BIN1 (11741810_x_at) / RFU WNT11 (11732464_a_at) / Fold change /veh WNT11 (11732464_a_at) / RFU C10orf10 (11716521_a_at) / Fold change /veh C10orf10 (11716521_a_at) / RFU C5orf56 (11738089_at) / Fold change /veh C5orf56 (11738089_at) / RFU CYB561 (11721691_x_at) / Fold change /veh CYB561 (11721691_x_at) / RFU ANKRD19P (11752326_a_at) / Fold change /veh ANKRD19P (11752326_a_at) / RFU OR2T12 /// OR2T33 /// OR2T8 (11738714_s_at) / Fold change /veh OR2T12 /// OR2T33 /// OR2T8 (11738714_s_at) / RFU VCAN (11748164_a_at) / Fold change /veh VCAN (11748164_a_at) / RFU JSRP1 (11732532_at) / Fold change /veh JSRP1 (11732532_at) / RFU KRTAP10-11 (11738290_x_at) / Fold change /veh KRTAP10-11 (11738290_x_at) / RFU MYO3A (11730013_a_at) / Fold change /veh MYO3A (11730013_a_at) / RFU EBF3 (11725865_a_at) / Fold change /veh EBF3 (11725865_a_at) / RFU CAMK2N1 (11719241_x_at) / Fold change /veh CAMK2N1 (11719241_x_at) / RFU C5orf56 (11738088_a_at) / Fold change /veh C5orf56 (11738088_a_at) / RFU OLFML3 (11715873_a_at) / Fold change /veh OLFML3 (11715873_a_at) / RFU LOC100653217 /// NTM (11731650_a_at) / Fold change /veh LOC100653217 /// NTM (11731650_a_at) / RFU MAPK11 (11762145_a_at) / Fold change /veh MAPK11 (11762145_a_at) / RFU FIZ1 (11724087_x_at) / Fold change /veh FIZ1 (11724087_x_at) / RFU OASL (11726364_x_at) / Fold change /veh OASL (11726364_x_at) / RFU SOX15 (11748057_x_at) / Fold change /veh SOX15 (11748057_x_at) / RFU CD79A (11719716_a_at) / Fold change /veh CD79A (11719716_a_at) / RFU HIST1H1D (11736915_at) / Fold change /veh HIST1H1D (11736915_at) / RFU CASKIN2 (11723855_a_at) / Fold change /veh CASKIN2 (11723855_a_at) / RFU LOC730098 (11760151_x_at) / Fold change /veh LOC730098 (11760151_x_at) / RFU OR4N2 (11742367_at) / Fold change /veh OR4N2 (11742367_at) / RFU PRRT2 (11749266_a_at) / Fold change /veh PRRT2 (11749266_a_at) / RFU SNX32 (11753110_a_at) / Fold change /veh SNX32 (11753110_a_at) / RFU CDHR5 (11726645_a_at) / Fold change /veh CDHR5 (11726645_a_at) / RFU RCAN1 (11760418_a_at) / Fold change /veh RCAN1 (11760418_a_at) / RFU FAM167A (11723789_a_at) / Fold change /veh FAM167A (11723789_a_at) / RFU FAM26E (11764081_at) / Fold change /veh FAM26E (11764081_at) / RFU ISYNA1 (11749810_s_at) / Fold change /veh ISYNA1 (11749810_s_at) / RFU ACY1 (11761880_at) / Fold change /veh ACY1 (11761880_at) / RFU 11764098_at / Fold change /veh 11764098_at / RFU SAMD14 (11745864_x_at) / Fold change /veh SAMD14 (11745864_x_at) / RFU NPB (11741838_a_at) / Fold change /veh NPB (11741838_a_at) / RFU TMPRSS6 (11731388_a_at) / Fold change /veh TMPRSS6 (11731388_a_at) / RFU KRTAP10-2 (11738614_at) / Fold change /veh KRTAP10-2 (11738614_at) / RFU ARHGAP8 /// PRR5-ARHGAP8 (11727945_x_at) / Fold change /veh ARHGAP8 /// PRR5-ARHGAP8 (11727945_x_at) / RFU KRTAP5-7 /// NADSYN1 (11734609_at) / Fold change /veh KRTAP5-7 /// NADSYN1 (11734609_at) / RFU RASL12 (11751679_a_at) / Fold change /veh RASL12 (11751679_a_at) / RFU CDKN2B (11736163_a_at) / Fold change /veh CDKN2B (11736163_a_at) / RFU PRF1 (11729649_at) / Fold change /veh PRF1 (11729649_at) / RFU, ZNF638 /// ZNF638-IT1 / Fold change vs veh, ZNF638 /// ZNF638-IT1 / RFU, PANK3 / Fold change vs veh, PANK3 / RFU, SH3YL1 / Fold change vs veh, SH3YL1 / RFU, ZEB2 / Fold change vs veh, ZEB2 / RFU, NRIP1 / Fold change vs veh, NRIP1 / RFU, PTTG1IP / Fold change vs veh, PTTG1IP / RFU, CAPN2 / Fold change vs veh, CAPN2 / RFU, MED14 / Fold change vs veh, MED14 / RFU, SNORA58 / Fold change vs veh, SNORA58 / RFU, C1orf63 / Fold change vs veh, C1orf63 / RFU, LRRFIP1 / Fold change vs veh, LRRFIP1 / RFU, NDUFAF7 / Fold change vs veh, NDUFAF7 / RFU, SLC12A2 / Fold change vs veh, SLC12A2 / RFU, IBTK / Fold change vs veh, IBTK / RFU, ESF1 / Fold change vs veh, ESF1 / Fold change vs veh, TMEM50B / RFU, TAOK1 / Fold change vs veh, TAOK1 / RFU, ACBD3 / Fold change vs veh, ACBD3 / RFU, TMA16 / Fold change vs veh, TMA16 / RFU, RWDD3 / Fold change vs veh, RWDD3 / RFU, BCAT1 / Fold change vs veh, BCAT1 / RFU, EDEM3 / Fold change vs veh, EDEM3 / RFU, TMEM33 / Fold change vs veh, TMEM33 / RFU, WDR75 / Fold change vs veh, WDR75 / RFU, AHCTF1 / Fold change vs veh, AHCTF1 / RFU, TFRC / Fold change vs veh, TFRC / RFU, ZDHHC17 / Fold change vs veh, ZDHHC17 / RFU, NOM1 / Fold change vs veh, NOM1 / RFU, ARL8B / Fold change vs veh, ARL8B / RFU, ZBTB11 / Fold change vs veh, ZBTB11 / RFU, TAMM41 / Fold change vs veh, TAMM41 / RFU, KIAA1704 /// LOC100996395 / Fold change vs veh, KIAA1704 /// LOC100996395 / RFU, ING1 / Fold change vs veh, ING1 / RFU, TRMT61B / Fold change vs veh, TRMT61B / RFU, FUBP3 / Fold change vs veh, FUBP3 / RFU, TP53 / Fold change vs veh, TP53 / RFU, TNKS2 / Fold change vs veh, TNKS2 / RFU, ZFP14 / Fold change vs veh, ZFP14 / RFU, ACTR2 / Fold change vs veh, ACTR2 / RFU, PPP3R1 / Fold change vs veh, PPP3R1 / RFU, PIK3R1 / Fold change vs veh, PIK3R1 / RFU, HNRNPA1 / Fold change vs veh, HNRNPA1 / RFU, RNF170 / Fold change vs veh, RNF170 / RFU, ZNF28 / Fold change vs veh, ZNF28 / RFU, RNGTT / Fold change vs veh, RNGTT / RFU, OGT / Fold change vs veh, OGT / RFU, BRD1 / Fold change vs veh, BRD1 / RFU, MARS / Fold change vs veh, MARS / RFU, ZNF655 / Fold change vs veh, ZNF655 / RFU, FAHD1 / Fold change vs veh, FAHD1 / RFU, BDP1 / Fold change vs veh, BDP1 / RFU, LRRCC1 / Fold change vs veh, LRRCC1 / RFU, ARID1A / Fold change vs veh, ARID1A / RFU, ZNF146 / Fold change vs veh, ZNF146 / RFU, ZNF330 / Fold change vs veh, ZNF330 / RFU, GPN3 / Fold change vs veh, GPN3 / RFU, C9orf123 / Fold change vs veh, C9orf123 / RFU, N4BP2L2 / Fold change vs veh, N4BP2L2 / RFU, ARFIP1 / Fold change vs veh, ARFIP1 / RFU, FAM179B / Fold change vs veh, FAM179B / RFU, BCL10 / Fold change vs veh, BCL10 / RFU, UHRF1BP1L / Fold change vs veh, UHRF1BP1L / RFU, BET1 / Fold change vs veh, BET1 / RFU, CNOT2 / Fold change vs veh, CNOT2 / RFU, ZNF268 / Fold change vs veh, ZNF268 / Fold change vs veh, ZNF507 / RFU, DGCR2 / Fold change vs veh, DGCR2 / RFU, WDSUB1 / Fold change vs veh, WDSUB1 / Fold change vs veh, HSP90B1 /// MIR3652 / RFU, ADSS / Fold change vs veh, ADSS / RFU, GK / Fold change vs veh, GK / RFU, ZNF148 / Fold change vs veh, ZNF148 / RFU, TAF9 / Fold change vs veh, TAF9 / RFU, SLC1A5 / Fold change vs veh, SLC1A5 / RFU, SLMO2 / Fold change vs veh, SLMO2 / RFU, ABCC4 / Fold change vs veh, ABCC4 / RFU, LOC101060439 /// RAP1B / Fold change vs veh, LOC101060439 /// RAP1B / RFU, RFX7 / Fold change vs veh, RFX7 / RFU, GTPBP10 / Fold change vs veh, GTPBP10 / RFU, CNEP1R1 / Fold change vs veh, CNEP1R1 / RFU, BIVM-ERCC5 /// ERCC5 / Fold change vs veh, BIVM-ERCC5 /// ERCC5 / RFU, ILF3 / Fold change vs veh, ILF3 / RFU 11762660_at / Fold change /veh 11762660_at / RFU VCAN (11757783_s_at) / Fold change /veh VCAN (11757783_s_at) / RFU DDX43 (11728927_at) / Fold change /veh DDX43 (11728927_at) / RFU KRT8 (11758188_x_at) / Fold change /veh KRT8 (11758188_x_at) / RFU NKD1 (11759106_at) / Fold change /veh NKD1 (11759106_at) / RFU SRD5A1 (11742802_a_at) / Fold change /veh SRD5A1 (11742802_a_at) / RFU TPSAB1 /// TPSB2 (11721975_s_at) / Fold change /veh TPSAB1 /// TPSB2 (11721975_s_at) / RFU GSTM3 (11746129_a_at) / Fold change /veh GSTM3 (11746129_a_at) / RFU IL23R (11737362_x_at) / Fold change /veh IL23R (11737362_x_at) / RFU TMEM51 (11727254_a_at) / Fold change /veh TMEM51 (11727254_a_at) / RFU PIWIL2 (11732686_x_at) / Fold change /veh PIWIL2 (11732686_x_at) / RFU ORM1 (11744905_x_at) / Fold change /veh ORM1 (11744905_x_at) / RFU CCDC152 (11743942_at) / Fold change /veh CCDC152 (11743942_at) / RFU ECM1 (11717891_a_at) / Fold change /veh ECM1 (11717891_a_at) / RFU IL23R (11748794_a_at) / Fold change /veh IL23R (11748794_a_at) / RFU TNFAIP8L3 (11732012_x_at) / Fold change /veh TNFAIP8L3 (11732012_x_at) / RFU MBOAT4 (11741988_at) / Fold change /veh MBOAT4 (11741988_at) / RFU 11764193_at / Fold change /veh 11764193_at / RFU TMEM53 (11763286_at) / Fold change /veh TMEM53 (11763286_at) / RFU MAGEB2 (11727129_at) / Fold change /veh MAGEB2 (11727129_at) / RFU TMEM200A (11744735_a_at) / Fold change /veh TMEM200A (11744735_a_at) / RFU CCDC152 (11751479_a_at) / Fold change /veh CCDC152 (11751479_a_at) / RFU FAM211A (11726209_a_at) / Fold change /veh FAM211A (11726209_a_at) / RFU RGS16 (11746705_a_at) / Fold change /veh RGS16 (11746705_a_at) / RFU VCAN (11755009_s_at) / Fold change /veh VCAN (11755009_s_at) / RFU RHOB (11743442_s_at) / Fold change /veh RHOB (11743442_s_at) / RFU RGS16 (11720943_a_at) / Fold change /veh RGS16 (11720943_a_at) / RFU RGS16 (11720944_at) / Fold change /veh RGS16 (11720944_at) / RFU, VPS4B / Fold change vs veh, VPS4B / RFU, CREB1 / Fold change vs veh, CREB1 / RFU, DNAJC13 / Fold change vs veh, DNAJC13 / RFU, GNAQ / Fold change vs veh, GNAQ / RFU, CDK5R1 / Fold change vs veh, CDK5R1 / RFU, ZRANB3 / Fold change vs veh, ZRANB3 / RFU, CUL4A / Fold change vs veh, CUL4A / RFU, CCNY / Fold change vs veh, CCNY / RFU, UFL1 / Fold change vs veh, UFL1 / RFU, COG3 / Fold change vs veh, COG3 / RFU, DIAPH2 / Fold change vs veh, DIAPH2 / RFU, SKA2 / Fold change vs veh, SKA2 / RFU, AFF3 / Fold change vs veh, AFF3 / RFU, LMF1 / Fold change vs veh, LMF1 / RFU, IPO11 / Fold change vs veh, IPO11 / RFU, DFFB / Fold change vs veh, DFFB / RFU, FOXP1 / Fold change vs veh, FOXP1 / RFU, CARD8 / Fold change vs veh, CARD8 / RFU, STRN3 / Fold change vs veh, STRN3 / RFU, ADK / Fold change vs veh, ADK / RFU, RASSF2 / Fold change vs veh, RASSF2 / RFU, WIPF1 / Fold change vs veh, WIPF1 / RFU, LARP1B / Fold change vs veh, LARP1B / RFU, RASA1 / Fold change vs veh, RASA1 / RFU, RB1 / Fold change vs veh, RB1 / RFU, PPFIA1 / Fold change vs veh, PPFIA1 / RFU, MAT2A / Fold change vs veh, MAT2A / RFU, CCT5 / Fold change vs veh, CCT5 / RFU, WDR92 / Fold change vs veh, WDR92 / RFU, CUX1 / Fold change vs veh, CUX1 / RFU, TTC7A / Fold change vs veh, TTC7A / RFU, TMEM135 / Fold change vs veh, TMEM135 / RFU, DEPTOR / Fold change vs veh, DEPTOR / RFU, CPM / Fold change vs veh, CPM / RFU, DNAJB6 / Fold change vs veh, DNAJB6 / RFU, CACNA2D3 / Fold change vs veh, CACNA2D3 / RFU, DTX4 / Fold change vs veh, DTX4 / RFU, TFCP2 / Fold change vs veh, TFCP2 / RFU, GMCL1 /// GMCL1P1 / Fold change vs veh, GMCL1 /// GMCL1P1 / RFU, AEBP2 / Fold change vs veh, AEBP2 / RFU, SNHG1 /// SNORD22 /// SNORD25 /// SNORD26 /// SNORD27 /// SNORD28 /// SNORD29 /// SNORD31 / Fold change vs veh, SNHG1 /// SNORD22 /// SNORD25 /// SNORD26 /// SNORD27 /// SNORD28 /// SNORD29 /// SNORD31 / Fold change (Aza/veh), C12orf56 (ProbeSet 11735607_a_at) / Fold change (ACY-1035/veh), C12orf56 (ProbeSet 11735607_a_at) / Fold change (Aza/veh), FGFR1OP (ProbeSet 11751329_s_at) / Fold change (ACY-1035/veh), FGFR1OP (ProbeSet 11751329_s_at) / Fold change (Aza/veh), VPS36 (ProbeSet 11739960_a_at) / Fold change (ACY-1035/veh), VPS36 (ProbeSet 11739960_a_at) / RFU SYPL1 (11715823_x_at) / Fold change /veh SYPL1 (11715823_x_at) / RFU IGFBP7 (11715501_s_at) / Fold change /veh IGFBP7 (11715501_s_at) / RFU REEP3 (11722064_at) / Fold change /veh REEP3 (11722064_at) / RFU IGLL1 (11728026_x_at) / Fold change /veh IGLL1 (11728026_x_at): dose or concentration left out as unconfirmed
Conditions: MV-4-11 cells, 48 hours

For Nc1ccc(-c2cccs2)cc1NC(=O)c1ccc2c(c1)cc(C1CC1)n2CCN1CCOCC1 [ACY-1035], the “RFU A4GNT (11735810_at)” value was 16.59 RFU.
